The source of these data is the supplement of paper PMC11061612.

SMILES strings stand for the structures.

What all share (assay): Bliss excess, mean over the matrix (fraction); higher = more synergy
Test [1] relates to BFTC-905 (Bladder Carcinoma). In short, it runs like this: (§1)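 Cell lines grown in DMEM/F12 or RPMI with 10% FBS were plated in 1536-well plates and held 24 hours at 37°C, 5% CO2 before 72 hours of exposure to two-drug dose matrices, with DMSO typically at 0.2%. CellTiter-Glo 2.0 luminescence gave viability, which was converted to inhibition. Vehicle wells were set to 0 and blank wells to 1. Combination Emax is the second-highest inhibition in the matrix, and Bliss excess is the observed combination effect minus the expected EA + EB − EA·EB, where EA and EB are the single-agent effects.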

Test [2] deals with BL-41 (Burkitt's Lymphoma). In short, it runs like this: as §1
The subject of test [3] is CAMA-1 (Breast Carcinoma). In short, it runs like this:
as §1

The next test deals with CHP-212 (Neuroblastoma). The essentials: as §1
Test [4] concerns COLO-678 (Colorectal Carcinoma). In short, it runs like this:
as §1

Test [5] has as its system DND-41 (T-Lymphoblastic Leukemia). The essentials:
as §1

The next test concerns ES1 (Ewing's Sarcoma). The essentials: as §1
Test [6] relates to HDQ-P1 (Breast Carcinoma). In short, it runs like this:
as §1

For test [7], the system named is KARPAS-45 (T-Lymphoblastic Leukemia). The essentials: as §1
For test [8], the system named is KM12 (Colorectal Carcinoma). The essentials: as §1
The test system of test [9] is L-540 (Hodgkin's Lymphoma). In short, it runs like this: as §1
A further test deals with MEL-JUSO (Melanoma). In short, it runs like this: as §1
The test system of test [10] is MS751 (Cervical Carcinoma). In short, it runs like this: as §1
The test system of a further test is NCI-H2818 (Mesothelioma). In short, it runs like this: as §1
Test [11] has as its system SU-DHL-8 (B-Cell Non-Hodgkin's Lymphoma). The essentials: as §1
Test [12] has as its system SW1417 (Colorectal Carcinoma). The essentials: as §1
The test system of test [13] is SW837 (Colorectal Carcinoma). In short, it runs like this:
as §1

The test system of test [14] is TOV-112D (Ovarian Carcinoma). The essentials: as §1
In another test the test system is U251 (Low Grade Glioma). In short, it runs like this: as §1
In another test the test system is WIL2-NS (Non-Cancerous). In short, it runs like this: as §1

Turning to `CN(C)CCCOc1ccc(-c2ccc3ncc4c(c3c2)n(C2CCOCC2)c(=O)n4C)cn1` [AZD0156] + C[C@@H]1COCCN1C2=NC(=NC(=C2)C3(CC3)[S@](=N)(=O)C)C4=C5C=CNC5=NC=C4 [AZD6738] (first compound max 1 µM, 7x7, partner max 10 µM), the Bliss excess in [1] was 0.0463; in [2], 0.0704; in test [3] it was -0.0444; with CHP-212 (Neuroblastoma), -0.0047; in [4] it was -0.0169; in [5], -0.0034. For the same compound, the Bliss excess was 0.0554 in the test with ES1 (Ewing's Sarcoma); 0.0214 in [6]; 0.0333 in test [7]; 0.0161 in test [8]; -0.0163 in test [9]; 0.0108 in the test with MEL-JUSO (Melanoma). Moreover, the Bliss excess was -0.0221 in [10]; -0.0511 in the test on NCI-H2818 (Mesothelioma); 0.0169 in test [11]; -0.0019 in test [12]; 0.0071 in [13]; 0.0136 in test [14]. Moreover, the Bliss excess is -0.0087 in the test with U251 (Low Grade Glioma) and 0.0131 with WIL2-NS (Non-Cancerous).
Take `CN(C)CCCOc1ccc(-c2ccc3ncc4c(c3c2)n(C2CCOCC2)c(=O)n4C)cn1` [AZD0156] + O=C(c1cc(Cc2n[nH]c(=O)c3ccccc23)ccc1F)N1CCN(C(=O)C2CC2)CC1 [Olaparib] (first compound max 3 µM, partner max 3 µM): the Bliss excess is 0.175 in [1]; 0.127 in test [2]; 0.0457 in test [3]; 0.222 in the test on CHP-212 (Neuroblastoma); -0.0152 in test [4]; 0.0867 in [5]. Further, the Bliss excess with ES1 (Ewing's Sarcoma) was 0.245; in test [6], -0.0859; in test [7] it was 0.0456; in test [8], 0.121; in test [9], 0.0746; with MEL-JUSO (Melanoma) it was -0.0387. Moreover, the Bliss excess in test [10] is -0.0033; in the test with NCI-H2818 (Mesothelioma), -0.0202; in [11], 0.0543; in [12], -0.0287; in test [13], 0.0159; in test [14], 0.0851. The results for the Bliss excess in the test on U251 (Low Grade Glioma) and in the test with WIL2-NS (Non-Cancerous) were 0.0345 and 0.215, respectively.
Consider `C=CCn1c(=O)c2cnc(Nc3ccc(N4CCN(C)CC4)cc3)nc2n1-c1cccc(C(C)(C)O)n1` [AZD1775] + C1CN(CCC1(C(=O)N[C@@H](CCO)C2=CC=C(C=C2)Cl)N)C3=NC=NC4=C3C=CN4 [Capivasertib] (first compound max 3 µM, partner max 3 µM), for which the Bliss excess is -0.0499 in test [1]; 0.0156 in test [2]; -0.0244 in [3]; -0.077 with CHP-212 (Neuroblastoma); -0.0893 in test [4]; -0.0428 in [5]. In addition, the Bliss excess with ES1 (Ewing's Sarcoma) is -0.0219; in test [6], -0.0679; in [7], -0.0046; in [8], -0.0162; in [9], -0.0019; with MEL-JUSO (Melanoma) it was -0.0352. Further, the Bliss excess in [10] was 0.0003; in the test with NCI-H2818 (Mesothelioma), -0.0493; in test [11], 0.0097; in test [12] it was -0.0368; in test [13] it was -0.0504; in test [14], 0.028. Moreover, the figures for the Bliss excess in the test with U251 (Low Grade Glioma) and with WIL2-NS (Non-Cancerous) were -0.0223 and -0.0675, respectively.
Turning to `C=CCn1c(=O)c2cnc(Nc3ccc(N4CCN(C)CC4)cc3)nc2n1-c1cccc(C(C)(C)O)n1` [AZD1775] + C[C@@H]1COCCN1C2=NC(=NC(=C2)C3(CC3)[S@](=N)(=O)C)C4=C5C=CNC5=NC=C4 [AZD6738] (first compound max 1 µM, partner max 10 µM), the Bliss excess in test [1] was 0.0665; in [2] it was 0.0369; in test [3], 0.0371; with CHP-212 (Neuroblastoma) it was -0.0567; in test [4], -0.028; in [5], 0.0181. For the same compound, the Bliss excess in the test with ES1 (Ewing's Sarcoma) is 0.0487; in test [6], -0.0038; in [7] it was 0.0465; in [8], 0.0228; in test [9], -0.0091; with MEL-JUSO (Melanoma), 0.0009. Besides, the Bliss excess in test [10] is 0.0075; in the test with NCI-H2818 (Mesothelioma), -0.0577; in [11], -0.0202; in test [12] it was -0.0253; in test [13], 0.0057; in test [14], 0.0714. For the same compound, the Bliss excess in the test with U251 (Low Grade Glioma) amounted to 0.0604; in the test with WIL2-NS (Non-Cancerous) it was 0.0269.
Regarding `C=CCn1c(=O)c2cnc(Nc3ccc(N4CCN(C)CC4)cc3)nc2n1-c1cccc(C(C)(C)O)n1` [AZD1775] + O=C(c1cc(Cc2n[nH]c(=O)c3ccccc23)ccc1F)N1CCN(C(=O)C2CC2)CC1 [Olaparib] (first compound max 1 µM, partner max 10 µM), the Bliss excess is -0.0292 in [1]; -0.0211 in test [2]; -0.0452 in test [3]; -0.0383 with CHP-212 (Neuroblastoma); -0.012 in test [4]; -0.0025 in test [5]. Also, the Bliss excess in the test with ES1 (Ewing's Sarcoma) was -0.0114; in test [6], -0.0441; in [7], -0.0302; in test [8], -0.0201; in test [9] it was -0.045; in the test with MEL-JUSO (Melanoma), -0.0523. Moreover, the Bliss excess in [10] was -0.0021; with NCI-H2818 (Mesothelioma), 0.0324; in [11], -0.0157; in test [12] it was -0.0605; in test [13], -0.0125; in [14], -0.0139. Also, the Bliss excess with U251 (Low Grade Glioma) is -0.0154; with WIL2-NS (Non-Cancerous), -0.0087.
Regarding `CCN(CCO)CCCOc1ccc2c(Nc3cc(CC(=O)Nc4cccc(F)c4)[nH]n3)ncnc2c1` [AZD2811] + C=CCn1c(=O)c2cnc(Nc3ccc(N4CCN(C)CC4)cc3)nc2n1-c1cccc(C(C)(C)O)n1 [AZD1775] (first compound max 1 µM, partner max 1 µM), the Bliss excess in test [1] is 0.0468; in test [2], 0.0862; in test [3] it was -0.0328; in the test with CHP-212 (Neuroblastoma) it was -0.0625; in [4], -0.0002; in [5], 0.0198. Further, the Bliss excess in the test with ES1 (Ewing's Sarcoma) was 0.16; in [6], -0.0186; in test [7], -0.0766; in test [8], -0.0092; in test [9], 0.0772; in the test with MEL-JUSO (Melanoma) it was 0.0131. Besides, the Bliss excess is 0.0461 in test [10]; -0.0461 in the test on NCI-H2818 (Mesothelioma); 0.0945 in test [11]; -0.0654 in test [12]; 0.0033 in [13]; 0.105 in test [14]. Further, the Bliss excess with U251 (Low Grade Glioma) was -0.0117; with WIL2-NS (Non-Cancerous) it was 0.0117.
Take `CCN(CCO)CCCOc1ccc2c(Nc3cc(CC(=O)Nc4cccc(F)c4)[nH]n3)ncnc2c1` [AZD2811] + C[C@@H]1COCCN1C2=NC(=NC(=C2)C3(CC3)[S@](=N)(=O)C)C4=C5C=CNC5=NC=C4 [AZD6738] (first compound max 1 µM, 7x7, partner max 10 µM): the Bliss excess in test [1] was -0.0462; in test [2] it was -0.0647; in test [3], -0.0417; in the test with CHP-212 (Neuroblastoma), -0.0822; in test [4], -0.0034; in test [5] it was -0.018. Besides, the Bliss excess with ES1 (Ewing's Sarcoma) is 0.0413; in test [6], -0.0597; in test [7], -0.0944; in test [8], -0.0709; in test [9] it was -0.0078; in the test on MEL-JUSO (Melanoma), -0.0644. The Bliss excess was 0.041 in test [10]; -0.0925 in the test on NCI-H2818 (Mesothelioma); 0.134 in test [11]; -0.0709 in [12]; -0.0252 in test [13]; 0.0433 in test [14]. Moreover, the Bliss excess is -0.0255 in the test with U251 (Low Grade Glioma) and 0.0036 in the test on WIL2-NS (Non-Cancerous).
